Measurements: patent US8772293B2, “Chemical compounds” (Pfizer Limited, priority 2010, dated 2014)
Structures can show the parent of a compound that is named as a salt.

Biological target: T1, Nav1.7 (or SCN9A) channel (Homo sapiens, UniProt Q15858)
T1 construct: expressed in transfected cells
Assay: Nav1.7 (hSCN9A) PatchXpress electrophysiology in HEK cells
Type: cell-based
Settings: PatchXpress platform; HEK cells stably expressing hSCN9A; held at V1/2 of inactivation; calculated from single point % inhibition; read-out: Nav1.7 EIC50 (estimated IC-50)
Experimental: The ability of the compounds of formula (I) to block the Nav1.7 (or SCN9A) channel were measured using the assay described below.
Human Embryonic Kidney (HEK) cells were transfected with an hSCN9A construct using lipofectamine reagent (Invitrogen), using standard techniques. Cells stably expressing the hSCN9A constructs were identified by their resistance to G-418 (400 μg/ml). Clones were screened for expression using the whole-cell voltage-clamp technique.
HEK cells stably transfected with hSCN9A were maintained in DMEM medium supplemented with 10% heat-inactivated fetal bovine serum and 400 µg/ml G-418 in an incubator at 37° C. with a humidified atmosphere of 10% CO2. For HTS, cells were harvested from flasks by trypsinization and replated in an appropriate multi-well plate (typically 96 or 384 wells/plate) such that confluence would be achieved within 24 hours of plating. For electrophysiological studies, cells were removed from the culture flask by brief trypsinization and re-plated at low density onto glass cover slips. Cells were typically used for electrophysiological experiments within 24 to 72 hours after plating.
Cover slips containing HEK cells expressing hSCN9A were placed in a bath on the stage of an inverted microscope and perfused (approximately 1 ml/minutes) with extracellular solution of the following composition: 138 mM NaCl, 2 mM CaCl2, 5.4 mM KCl, 1 mM MgCl2, 10 mM glucose, and 10 mM HEPES, pH 7.4, with NaOH. […] The osmolarity of the extracellular and intracellular solutions was 300 mOsm/kg and 295 mOsm/kg, respectively. All recordings were made at room temperature (22-24° C.) using AXOPATCH 200B amplifiers and PCLAMP software (Axon Instruments, Burlingame, Calif.).
hSCN9A currents in HEK cells were measured using the whole-cell configuration of the patch-clamp technique (Hamill et al., 1981). Uncompensated series resistance was typically 2 to 5 mega ohms and >85% series resistance compensation was routinely achieved. As a result, voltage errors were negligible and no correction was applied. Current records were acquired at 20 to 50 KHz and filtered at 5 to 10 KHz.
HEK cells stably transfected with hSCN9A were viewed under Hoffman contrast optics and placed in front of an array of flow pipes emitting either control or compound-containing extracellular solutions. All compounds were dissolved in dimethyl sulfoxide to make 10 mM stock solutions, which were then diluted into extracellular solution to attain the final concentrations desired. […] The voltage-dependence of inactivation was determined by applying a series of depolarizing prepulses (8 sec long in 10 mV increments) from a negative holding potential. The voltage was then immediately stepped to 0 mV to assess the magnitude of the sodium current. Currents elicited at 0 mV were plotted as a function of prepulse potential to allow estimation of the voltage at which 50% of the channels were inactivated (midpoint of inactivation or V1/2). Compounds were tested for their ability to inhibit hSCN9A sodium channels by activating the channel with a 20 msec voltage step to 0 mV following an 8 second conditioning prepulse to the empirically determined V1/2. Compound effect (% inhibition) was determined by difference in current amplitude before and after application of test compounds. For ease of comparison, “estimated IC-50” (EIC50) values were calculated from single point electrophysiology data by the following equation, (tested concentration, uM)×(100-% inhibition/% inhibition). Inhibition values <20% and >80% were excluded from the calculation.
Electrophysiological assays were conducted with PatchXpress 7000 hardware and associated software (Molecular Devices Corp). All assay buffers and solutions were identical to those used in conventional whole-cell voltage clamp experiments described above. hSCN9A cells were grown as above to 50%-80% confluency and harvested by trypsinization. […]

T1 sequence (Q15858 whole entry): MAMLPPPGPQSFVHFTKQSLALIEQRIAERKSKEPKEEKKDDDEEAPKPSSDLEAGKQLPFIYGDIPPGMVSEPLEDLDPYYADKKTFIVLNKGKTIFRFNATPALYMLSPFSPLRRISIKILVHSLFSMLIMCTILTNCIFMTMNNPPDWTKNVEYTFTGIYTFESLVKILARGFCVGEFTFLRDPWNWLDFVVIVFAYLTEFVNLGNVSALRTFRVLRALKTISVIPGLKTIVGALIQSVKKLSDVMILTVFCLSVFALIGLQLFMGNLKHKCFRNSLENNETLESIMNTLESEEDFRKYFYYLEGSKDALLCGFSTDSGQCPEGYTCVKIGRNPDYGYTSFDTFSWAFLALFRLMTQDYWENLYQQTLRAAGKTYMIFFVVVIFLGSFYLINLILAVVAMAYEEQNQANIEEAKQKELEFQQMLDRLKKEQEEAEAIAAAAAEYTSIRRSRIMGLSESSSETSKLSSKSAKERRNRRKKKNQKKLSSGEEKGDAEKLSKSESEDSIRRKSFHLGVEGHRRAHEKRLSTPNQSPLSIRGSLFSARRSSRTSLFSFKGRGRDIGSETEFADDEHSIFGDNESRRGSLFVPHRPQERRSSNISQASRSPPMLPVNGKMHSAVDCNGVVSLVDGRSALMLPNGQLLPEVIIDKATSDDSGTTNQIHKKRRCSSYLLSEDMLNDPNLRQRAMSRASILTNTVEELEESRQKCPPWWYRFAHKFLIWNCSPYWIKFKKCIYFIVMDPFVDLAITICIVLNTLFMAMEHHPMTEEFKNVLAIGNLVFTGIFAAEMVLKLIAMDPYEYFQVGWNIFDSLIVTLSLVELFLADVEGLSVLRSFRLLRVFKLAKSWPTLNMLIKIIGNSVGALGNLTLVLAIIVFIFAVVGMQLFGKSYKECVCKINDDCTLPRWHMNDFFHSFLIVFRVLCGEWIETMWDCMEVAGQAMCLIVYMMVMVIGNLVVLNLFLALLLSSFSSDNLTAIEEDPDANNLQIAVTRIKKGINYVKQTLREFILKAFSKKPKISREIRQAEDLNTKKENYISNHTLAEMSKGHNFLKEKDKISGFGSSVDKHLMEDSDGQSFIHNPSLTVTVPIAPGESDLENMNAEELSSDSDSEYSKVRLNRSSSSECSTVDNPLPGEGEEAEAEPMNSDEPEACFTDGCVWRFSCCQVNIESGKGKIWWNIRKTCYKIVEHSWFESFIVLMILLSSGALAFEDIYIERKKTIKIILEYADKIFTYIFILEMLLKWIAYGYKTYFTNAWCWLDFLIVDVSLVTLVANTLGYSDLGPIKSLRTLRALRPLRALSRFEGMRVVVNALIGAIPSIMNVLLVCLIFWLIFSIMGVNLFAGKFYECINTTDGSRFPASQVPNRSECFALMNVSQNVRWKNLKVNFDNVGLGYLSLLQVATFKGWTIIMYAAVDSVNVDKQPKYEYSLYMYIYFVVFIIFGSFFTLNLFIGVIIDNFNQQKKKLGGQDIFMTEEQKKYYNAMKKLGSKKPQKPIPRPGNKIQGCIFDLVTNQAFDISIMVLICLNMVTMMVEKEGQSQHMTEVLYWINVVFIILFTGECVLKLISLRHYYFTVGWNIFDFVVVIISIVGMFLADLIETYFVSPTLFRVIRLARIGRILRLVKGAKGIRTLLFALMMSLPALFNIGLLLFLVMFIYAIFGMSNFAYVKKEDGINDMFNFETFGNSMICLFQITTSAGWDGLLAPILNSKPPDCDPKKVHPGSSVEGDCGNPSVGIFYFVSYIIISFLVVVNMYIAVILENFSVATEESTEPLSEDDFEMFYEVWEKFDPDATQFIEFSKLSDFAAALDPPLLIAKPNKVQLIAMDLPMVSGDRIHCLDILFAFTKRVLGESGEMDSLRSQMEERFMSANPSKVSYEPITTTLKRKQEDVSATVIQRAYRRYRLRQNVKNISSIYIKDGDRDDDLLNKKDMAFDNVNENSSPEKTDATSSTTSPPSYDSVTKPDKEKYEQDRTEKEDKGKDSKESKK

Row | SMILES | IC50 [nM]
1 | O=S(=O)(Nc1nncs1)c1cc(Cl)c(Oc2cc(Cl)c(-c3cccc(F)c3)cc2-c2ccnnc2)cc1F [Example 26, 5-Chloro-4-{[2-chloro-3′-fluoro-5-(pyridazin-4-yl)biphenyl-4-yl]oxy}-2-fluoro-N-(1,3,4-thiadiazol-2-yl)benzenesulfonamide] | 2.3
2 | O=S(=O)(Nc1nncs1)c1cc(Cl)c(Oc2cc(Cl)c(-c3ccccc3F)cc2-c2ccnnc2)cc1F [Example 27, 5-Chloro-4-{[2-chloro-2′-fluoro-5-(pyridazin-4-yl)biphenyl-4-yl]oxy}-2-fluoro-N-(1,3,4-thiadiazol-2-yl)benzenesulfonamide] | 0.9
3 | O=S(=O)(Nc1nncs1)c1cc(Cl)c(Oc2cc(Cl)c(-c3cccc(C(F)(F)F)c3)cc2-c2ccnnc2)cc1F [Example 28, 5-Chloro-4-{[2-chloro-5-(pyridazin-4-yl)-3′-(trifluoromethyl)biphenyl-4-yl]oxy}-2-fluoro-N-(1,3,4-thiadiazol-2-yl)benzenesulfonamide] | 0.9
4 | O=S(=O)(Nc1nncs1)c1cc(Cl)c(Oc2ccc(-c3ccc(Cl)c(C(F)(F)F)c3)cc2-c2ccnnc2)cc1F [Example 29, 5-Chloro-4-{[4′-chloro-3-(pyridazin-4-yl)-3′-(trifluoromethyl)biphenyl-4-yl]oxy}-2-fluoro-N-(1,3,4-thiadiazol-2-yl)benzenesulfonamide] | 0.8
5 | O=S(=O)(Nc1nncs1)c1cc(Cl)c(Oc2ccc(-c3ccc(C(F)(F)F)nc3)cc2-c2ccnnc2)cc1F [Example 30, 5-Chloro-2-fluoro-4-{2-(pyridazin-4-yl)-4-[6-(trifluoromethyl)pyridin-3-yl]phenoxy}-N-(1,3,4-thiadiazol-2-yl)benzenesulfonamide] | 23
6 | O=S(=O)(Nc1nncs1)c1cc(Cl)c(Oc2ccc(-c3cccc(C(F)(F)F)n3)cc2-c2ccnnc2)cc1F [Example 31, 5-Chloro-2-fluoro-4-{2-(pyridazin-4-yl)-4-[6-(trifluoromethyl)pyridin-2-yl]phenoxy}-N-(1,3,4-thiadiazol-2-yl)benzenesulfonamide] | 16
7 | O=S(=O)(Nc1nncs1)c1cc(Cl)c(Oc2cc(-c3ccc(F)cc3)c(Cl)cc2-c2ccnnc2)cc1F [Example 37, 5-Chloro-4-[(6-chloro-4′-fluoro-4-pyridazin-4-ylbiphenyl-3-yl)oxy]-2-fluoro-N-1,3,4-thiadiazol-2-ylbenzenesulfonamide] | 12
8 | N#Cc1cccc(-c2ccc(Oc3cc(F)c(S(=O)(=O)Nc4nncs4)cc3Cl)c(-c3ccnnc3)c2)c1 [Example 39, 5-chloro-4-[(3′-cyano-3-pyridazin-4-ylbiphenyl-4-yl)oxy]-2-fluoro-N-1,3,4-thiadiazol-2-ylbenzenesulfonamide] | 7.7
9 | O=S(=O)(Nc1ncccn1)c1cc(Cl)c(Oc2ccc(-c3ccc(C(F)(F)F)cc3)cc2-c2ccnc(N3CCNCC3)c2)cc1F [Example 40, 5-chloro-2-fluoro-4-{[3-(2-piperazin-1-ylpyridin-4-yl)-4′-(trifluoromethyl)biphenyl-4-yl]oxy}-N-pyrimidin-2-ylbenzenesulfonamide] | 1

Further compounds by falling IC50, results first:

Row | IC50 [nM] | SMILES
10 | 18 | O=S(=O)(Nc1nncs1)c1cc(Cl)c(Oc2cc(-c3ccccc3F)c(Cl)cc2-c2ccnnc2)cc1F [Example 38, 5-Chloro-4-[(6-chloro-2′-fluoro-4-pyridazin-4-ylbiphenyl-3-yl)oxy]-2-fluoro-N-1,3,4-thiadiazol-2-ylbenzenesulfonamide]
11 | 16 | O=S(=O)(Nc1nncs1)c1cc(Cl)c(Oc2ccc(-c3ccnc(C(F)(F)F)c3)cc2-c2ccnnc2)cc1F [Example 33]
12 | 11 | O=S(=O)(Nc1nncs1)c1cc(Cl)c(Oc2cc(-c3cccc(F)c3)c(Cl)cc2-c2ccnnc2)cc1F [Example 36, 5-Chloro-4-[(6-chloro-3′-fluoro-4-pyridazin-4-ylbiphenyl-3-yl)oxy]-2-fluoro-N-1,3,4-thiadiazol-2-ylbenzenesulfonamide]
13 | 5.3 | N#Cc1cccc(-c2ccc(Oc3cc(F)c(S(=O)(=O)Nc4nncs4)cc3Cl)c(-c3c[nH]nc3N)c2)c1 [Example 32, 4-{[3-(5-Amino-1H-pyrazol-4-yl)-3′-cyanobiphenyl-4-yl]oxy}-5-chloro-2-fluoro-N-(1,3,4-thiadiazol-2-yl)benzenesulfonamide]
14 | 2.2 | O=S(=O)(Nc1ccncn1)c1cc(Cl)c(Oc2ccc(-c3ccc(C(F)(F)F)cc3)cc2-c2ccnc(N3CCNCC3)c2)cc1F [Example 35, 5-Chloro-2-fluoro-4-({3-[2-(piperazin-1-yl)pyridin-4-yl]-4′-(trifluoromethyl)biphenyl-4-yl}oxy)-N-(pyrimidin-4-yl)benzenesulfonamide hydrochloride salt]
15 | 0.5 | O=S(=O)(Nc1nncs1)c1cc(Cl)c(Oc2ccc(-c3ccc(C(F)(F)F)cc3)cc2-c2ccnc(N3CCNCC3)c2)cc1F [Example 34, 5-Chloro-2-fluoro-4-({3-[2-(piperazin-1-yl)pyridin-4-yl]-4′-(trifluoromethyl)biphenyl-4-yl}oxy)-N-(1,3,4-thiadiazol-2-yl)benzenesulfonamide, hydrochloride]
